These results are taken from patent publication US20120220537A1, “9-AMINOACRIDINE DERIVATIVES, THEIR PREPARATION AND USES” (ARIEL-UNIVERSITY RESEARCH AND DEVELOPMENT COMPANY LTD., priority 2009, published 2012).

“Also recorded” adds a separate entry of the source. Read-outs that look alike come from different tables or passages of the source.

What all share (type): cell-based
One data set relates to H1299 (lung carcinoma). Briefly: In vitro cytotoxicity, neutral red uptake. The note with it: 24 h treatment, read-out: anticancer activity (IC50) H1299. As for the experimental part: (§1) Cells (250000/well) were cultured in 24-well plates for 24 h to 70-80% confluence or cells (20000/well) were cultured in 96-well plates for 24 h or overnight to 70-80% confluence. Four 24-well plates and one 96-well plate have been seeded. The following concentrations of the compounds were examined (each one in triplicate)-0 microgram/μl, 0.05 microgram/ml, 0.5 microgram/ml, 5 microgram/ml, 50 microgram/ml. The volume of wells in 24-well plates was 0.5 ml while that of 96-well plates was 0.1 ml. After the 24 h treatment the culture medium in the wells were replaced with 0.5 ml fresh medium containing 1:100 dilution of neutral red (10 microliters/1 ml). The plates were incubated for 2 h in a dark in culture incubator. The medium was aspirated and the cells washed twice with 0.5/0.1 ml of solution containing 1% CaCl2 and 0.5% formaldehyde. The dye was extracted from cells upon addition of 0.5/0.1 ml 1% glacial acetic acid in 50% ethanol with 10 min incubation at room temperature. The absorbance was measured spectrophotometrically at a wavelength of 540 nm. The background absorbance measurement of the multiwell plates was done at 690 nm and subtract from 540 nm.

The next data set relates to HT29 (colon carcinoma). Briefly: In vitro cytotoxicity, neutral red uptake. The note with it: 24 h treatment, read-out: anticancer activity (IC50) HT29. As for the experimental part:
as §1

A further data set concerns MCF-7 (breast cancer). As to the kind of experiment: In vitro cytotoxicity, neutral red uptake. Conditions: MCF7 wt cells, 24 h treatment, read-out: anticancer activity (IC50) MCF7 wt. The procedure: as §1
Data set [1] deals with MCF-7mito (mitoxantrone selected and associated with MDR phenomena breast cancer). Briefly: In vitro cytotoxicity, neutral red uptake. The note with it: read-out: anticancer activity (IC50) MCF7 mito. As for the experimental part: as §1
For data set [2], the system named is MDM-MD-A31 (renal cancer). As to the kind of experiment: In vitro cytotoxicity, neutral red uptake. The note with it: MDM-MD-A31 cells, 24 h treatment, read-out: anticancer activity (IC50) MDM-MD-A31. As for the experimental part:
as §1

In data set [3] the test system is NCI-ADR (associated with multidrug resistance (MDR) phenomena ovarian cancer). As to the kind of experiment: In vitro cytotoxicity, neutral red uptake. Conditions: NCIADR cells, 24 h treatment, read-out: anticancer activity (IC50) NCIADR. The procedure: as §1
The test system of the next data set is OVCAR8 (ovarian cancer). Briefly: In vitro cytotoxicity, neutral red uptake. Conditions: 24 h treatment, read-out: anticancer activity (IC50) OVCAR8. The procedure: as §1
The subject of data set [4] is cancer cell lines MDM-MD-A31, MCF-7, HT29, OVCAR8, NCI-ADR, MCF-7mito and H1299. As to the kind of experiment: In vitro cytotoxicity, all tested cancer cell lines. Conditions: statement in words. The procedure: as §1
[5] abbreviates: Homo sapiens, NCI-H1299, H1299 cells.
[6] abbreviates: Homo sapiens, HT-29, HT29 cells.
Where [7] appears, read: Homo sapiens, MCF7 mito cells, 24 h treatment, neutral red.
The mark [8] stands for this setting: Homo sapiens, OVCAR-8, OVCAR8 cells.

With `Nc1c2ccccc2nc2ccccc12` [9-aminoacridine], the IC50 is 32.8 µM in the data set with H1299 (lung carcinoma) (setting [5]); 2.25 µM in the data set on HT29 (colon carcinoma) (setting [6]); 11.2 µM in the data set on MCF-7 (breast cancer) (Homo sapiens); 163 µM in data set [1] (setting [7]); 1.5 µM in data set [2]; 21 µM in data set [3] (Homo sapiens, NCI/ADR-RES). In the data set with OVCAR8 (ovarian cancer) (setting [8]), the IC50 amounted to 1.7 µM.

Regarding `O=C(O)c1ccccc1CNc1c2ccccc2nc2ccccc12` [Compound 1, 2-(acridin-9-ylaminomethyl)benzoic acid], the IC50 with H1299 (lung carcinoma) (setting [5]) was 74.3 µM; with HT29 (colon carcinoma) (setting [6]), 1.2 µM; with MCF-7 (breast cancer) (Homo sapiens), 20.2 µM; in data set [1] (setting [7]) it was 0.76 µM; in data set [2], 10.3 µM; in data set [3] (Homo sapiens, NCI/ADR-RES), 12.2 µM. Further, the IC50 in the data set with OVCAR8 (ovarian cancer) (setting [8]) turned out to be 0.71 µM. The “cytotoxicity compared with reference or other tested compounds” value in data set [4] is “more cytotoxic than the corresponding 9-aminoacridine”.

Consider `O=[N+]([O-])c1ccc(O)cc1CNc1c2ccccc2nc2ccccc12` [Compound 4, N-(2-nitro-5-hydroxy-benzyl)acridin-9-amine], for which the IC50 with H1299 (lung carcinoma) (setting [5]) was over 100 µM; in the data set on HT29 (colon carcinoma) (setting [6]), 7.14 µM; in the data set with MCF-7 (breast cancer) (Homo sapiens), 58.6 µM; in data set [1] (setting [7]) it was 18.4 µM; in data set [2], 75.6 µM; in data set [3] (Homo sapiens, NCI/ADR-RES) it was 86.4 µM. Further, the IC50 in the data set on OVCAR8 (ovarian cancer) (setting [8]) came to 15.4 µM.

Turning to `Oc1ccc2ccccc2c1CNc1c2ccccc2nc2ccccc12` [Compound 8, N-(2-hydroxy-naphthylmethyl)acridin-9-amine], the IC50 with H1299 (lung carcinoma) (setting [5]) was 62.6 µM; in the data set with HT29 (colon carcinoma) (setting [6]), 2.6 µM; with MCF-7 (breast cancer) (Homo sapiens) it was 14.1 µM; in data set [1] (setting [7]) it was 1.8 µM; in data set [2] it was 13.2 µM; in data set [3] (Homo sapiens, NCI/ADR-RES) it was 42.3 µM. In addition, the IC50 in the data set with OVCAR8 (ovarian cancer) (setting [8]) stood at 9.1 µM.

Take `O=[N+]([O-])c1ccccc1Nc1c2ccccc2nc2ccccc12` [Compound 10, N-(2-nitrophenyl)acridin-9-amine]: the half-maximal inhibitory concentration (IC50) in the data set with H1299 (lung carcinoma) (setting [5]) is over 100 µM; in the data set with HT29 (colon carcinoma) (setting [6]), 74.2 µM; with MCF-7 (breast cancer) (Homo sapiens), over 100 µM; in data set [1] (setting [7]) it was 46.7 µM; in data set [2], over 100 µM; in data set [3] (Homo sapiens, NCI/ADR-RES), 40.3 µM. Moreover, the IC50 in the data set with OVCAR8 (ovarian cancer) (setting [8]) is over 100 µM.

Turning to `O=[N+]([O-])c1ccc(Nc2c3ccccc3nc3ccccc23)c([N+](=O)[O-])c1` [Compound 12, N-(2,4-dinitrophenyl)acridin-9-amine], the IC50 in the data set on H1299 (lung carcinoma) (setting [5]) was over 100 µM; in the data set with HT29 (colon carcinoma) (setting [6]), 71.3 µM; in the data set on MCF-7 (breast cancer) (Homo sapiens), 89.1 µM; in data set [1] (Homo sapiens, MCF7, 24 h), 7.2 µM; in data set [2], over 100 µM; in data set [3] (Homo sapiens, NCI/ADR-RES), 15.4 µM. Also, the concentration for half-maximal inhibition (IC50) in the data set with OVCAR8 (ovarian cancer) (setting [8]) was 33.8 µM.

Take `O=C(O)c1ccc(Nc2c3ccccc3nc3ccccc23)c([N+](=O)[O-])c1` [Compound 13, 4-(acridin-9-ylamino)-3-nitrobenzoic acid]: the IC50 came out at 86.4 µM in the data set with H1299 (lung carcinoma) (setting [5]); 3.6 µM with HT29 (colon carcinoma) (setting [6]); 11.6 µM in the data set on MCF-7 (breast cancer) (Homo sapiens); 7.2 µM in data set [1] (setting [7]); 0.6 µM in data set [2]; 54.2 µM in data set [3] (Homo sapiens, NCI/ADR-RES). In addition, the IC50 with OVCAR8 (ovarian cancer) (setting [8]) worked out at 6.5 µM. Also, the “cytotoxicity compared with reference or other tested compounds” value in data set [4] is “more cytotoxic than the corresponding 9-aminoacridine”.

With `NC(=O)c1ccc(Nc2c3ccccc3nc3ccccc23)c([N+](=O)[O-])c1` [Compound 14, 4-(acridin-9-ylamino)-3-nitrobenzamide], the IC50 in the data set with HT29 (colon carcinoma) (setting [6]) was 3.6 µM; in data set [1] (setting [7]) it was 7.2 µM; in data set [2], 0.6 µM.

Regarding `O=[N+]([O-])c1cc([N+](=O)[O-])c(Nc2c3ccccc3nc3ccccc23)cc1F` [Compound 18, N-(2,4-dinitro-5-fluorophenyl)acridin-9-amine], the half-maximal inhibitory concentration (IC50) in data set [2] turned out to be 0.3 µM.

On to `COc1cc([N+](=O)[O-])ccc1Nc1c2ccccc2nc2ccccc12` [Compound 20, N-(2-methoxy-4-nitrophenyl)acridin-9-amine], for which the IC50 was found to be 1.2 µM in the data set on HT29 (colon carcinoma) (setting [6]), 0.1 µM in data set [2] and 0.6 µM in the data set on OVCAR8 (ovarian cancer) (setting [8]).

Regarding `O=[N+]([O-])c1cccnc1Nc1c2ccccc2nc2ccccc12` [Compound 21, N-(3-nitropyrid-2-yl)acridin-9-amine], the 50% inhibitory concentration (IC50) with H1299 (lung carcinoma) (setting [5]) amounted to 0.7 µM; in data set [1] (setting [7]), 1.6 µM; in data set [2] it was 0.8 µM.

With `O=C1C(Br)=C(Br)C(=O)C(Nc2c3ccccc3nc3ccccc23)=C1Br` [Compound 38, 2-(acridin-9-ylamino)-3,5,6-tribromobenzoquinone], the concentration for half-maximal inhibition (IC50) with OVCAR8 (ovarian cancer) (setting [8]) was 3.7 µM.

For `O=C1C(Cl)=C(Nc2c3ccccc3nc3ccccc23)C(=O)c2ccccc21` [Compound 39, 2-(acridin-9-ylamino)-3-chloronaphthoquinone], the IC50 in data set [1] (setting [7]) is 0.8 µM; in data set [2] it was 0.15 µM; in the data set with OVCAR8 (ovarian cancer) (setting [8]), 1.2 µM.

As to `CCOC1=C(Nc2c3ccccc3nc3ccccc23)C(=O)c2c(O)ccc(O)c2C1=O` [Compound 41, 2-(acridin-9-ylamino)-3-ethoxy-5,8-dihydroxy-naphthoquinone], the IC50 stood at 0.14 µM in the data set on H1299 (lung carcinoma) (setting [5]), 1.1 µM in the data set with HT29 (colon carcinoma) (setting [6]), 0.5 µM in data set [1] (setting [7]) and 0.06 µM in data set [2]. Also, the “cytotoxicity compared with reference or other tested compounds” value in data set [4] is “greater activity against all above mentioned cell lines than the anticancer drug amsacrine; also recorded: the most potent among the tested compounds”.

As for `O=C(NC(CO)C(=O)O)c1ccc(Nc2c3ccccc3nc3ccccc23)c([N+](=O)[O-])c1` (stereo not drawn) [Compound 42, (2-(4-(acridin-9-ylamino)-3-nitrobenzamido)-3-hydroxypropanoic acid)], the IC50 in the data set with HT29 (colon carcinoma) (setting [6]) came to 2.2 µM; in data set [1] (setting [7]), 4.5 µM; in data set [2], 0.4 µM.

For the compound `NCCCCC(NC(=O)c1ccc(Nc2c3ccccc3nc3ccccc23)c([N+](=O)[O-])c1)C(N)=O` (stereo not drawn) [Compound 46, 4-(acridin-9-ylamino)-N-(1,6-diamino-1-oxohex-2-yl)-3-nitro-benzamide], the IC50 in the data set on H1299 (lung carcinoma) (setting [5]) is over 100 µM; with HT29 (colon carcinoma) (setting [6]) it was 7.14 µM; in the data set on MCF-7 (breast cancer) (Homo sapiens), 58.6 µM; in data set [1] (setting [7]) it was 18.4 µM; in data set [2] it was 75.6 µM; in data set [3] (Homo sapiens, NCI/ADR-RES), 86.4 µM. The IC50 in the data set with OVCAR8 (ovarian cancer) (setting [8]) came to 15.4 µM.

Consider amsacrine [reference compound], for which the IC50 stood at 119 µM with H1299 (lung carcinoma) (H1299 cells); 2.2 µM with HT29 (colon carcinoma) (HT29 cells); 19.8 µM in the data set on MCF-7 (breast cancer); 1.5 µM in data set [1] (MCF7 mito cells, 24 h treatment, neutral red); 17.2 µM in data set [2]; 16.1 µM in data set [3]. Besides, the IC50 in the data set with OVCAR8 (ovarian cancer) (OVCAR8 cells) is 21.9 µM.

Usually IC50 stands for the midpoint of a concentration-inhibition curve.
